Measurements taken from patent US20260132165A1, “MODIFIED NUCLEOSIDE ANALOGUE AND USE THEREOF, AND NUCLEOSIDE ANALOGUE-CONTAINING DOUBLE-STRANDED OLIGONUCLEOTIDE AND USE THEREOF” (RIGERNA THERAPEUTICS (BEIJING) CO., LTD., priority 2023, published 2026).
Where “and” joins values, the source holds several entries; their conditions need not be identical. Identical values can stand only once. Strand notation (5' to 3'): a small letter for the sugar, then the base; units joined by * are phosphorothioate-linked, units joined directly phosphodiester-linked; [ ] holds rarer units or linkages, { } end groups; capitals alone tell only the bases. [NM031] = nucleoside analogue NM031 of the disclosure, C16 lipid conjugate (uridine-based); {VP} = (thio)vinylphosphonate on the antisense 5' nucleotide, as listed; m = 2'-O-methyl; f = 2'-fluoro

Tests used:
[1] = tested on: target gene SOD1; assay: Test Example 3: inhibitory activity of lipid conjugated siRNA sequences on SOD1 by lateral ventricle administration to mice; format: in vivo, C57BL/6j mice; conditions: 200 μg per mouse, D5
Procedure: 6-8 Week-old C57BL/6j mice were randomly grouped by body weight. Mice in each group were administered with siRNA by lateral ventricle administration, with an administration dose per mouse depending on a specific test. Taking Bregma in mouse brain as point 0 (origin), coordinates of right ventricle were found using the cerebral stereotaxic apparatus and position was marked on surface of skull (position of lateral ventricle was AP (anteroposterior, bregma anterior and posterior): −0.58 mm, ML (mediolateral, left and right of middle raphe): −1.2 mm, DV (dorsoventral, up and down cerebral dura mater plane): −2.2 mm). A dental electric drill was used to drill in the skull above a position of interest, and then medicament was injected into the lateral ventricle by a micro-dosing pump, wherein a total injection volume was 5 μL, and injection duration was 10 min. Needle was retained for 5 min after completion of injection, and then slowly withdrawn. Afterwards, needle hole was sealed with biomedical glue, and then head skin was adhered. After animals woke up, the animals were returned back to animal house and further fed. PBS control group was administered with the same volume of siRNA-free PBS solution. The day of administration was recorded as 0 day (D0), and the mice were sacrificed at observation point after the administration. Different parts of brain region were respectively taken and stored in the RNAlater.
(§1) RNA extraction: the above tissue samples were taken out from the RNAlater, and smashed for 60 s in Tissuelyser type II full-automatic tissue homogenizer, and total RNAs of various tissue samples were extracted using the full-automatic nucleic acid extraction instrument and the nucleic acid extraction kit from Zhejiang Hanwei Science and Technology Co. Ltd. according to methods described in instructions.
(§2) Reverse transcription reaction: 1 μg of the extracted total RNAs of the tissue samples were taken, and configured into 20 μL of reverse transcription system according to a method described in kit instructions by using a reverse transcription kit (Reverse Transcription System, A3500) from Promega Corporation and selecting Oligo (dT)15 reverse transcription primers, and the reverse transcription reaction was completed. After the reaction was ended, 80 μL of RNase-Free water was added into the reverse transcription system to provide cDNA solution for Real-time PCR detection.
(§3) Real-time PCR detection: 20 μL of Real-time PCR reaction system per PCR detection well was configured according to a method described in kit instructions using SYBR™ Select Master Mix (Catalog number: 4472908) reagent from ABI company. Each detection system contained 5 μL of cDNA template obtained from the above reverse transcription reaction, 10 μL of SYBR™ Select Master Mix, 0.5 μL of 10 μM upstream primers, 0.5 μL of 10 μM downstream primers, and 4 μL of RNase-Free H2O. The configured reaction system was subjected to Real-time PCR amplification on ABI StepOnePlus PCR instrument by a three-step method, wherein an amplification procedure was pre-denaturation at 95° C. for 10 min, then denaturation at 95° C. for 30 s, annealing at 60° C. for 30 s, and extension at 72° C. for 30 s; and processes of denaturation, annealing, and extension were repeated for 40 cycles. Gene expression differences were calculated by the ΔΔCt method after completion of the procedure.
In the real-time fluorescence quantitative PCR method, relative quantitative calculation of remaining expression level and inhibition rate of gene mRNA of interest in various test groups was performed by the ΔΔCt method, and the calculation method is as follows: […]

[2] = tested on: target gene SOD1; assay: Test Example 5: inhibitory activity of lipid conjugated siRNA sequences on SOD1 by intrathecal administration to rats; format: in vivo, SD rats; parameters: key to Lumbar segmen Mean value of inhibition rate / Cortex Mean value of inhibition rate / Thoracic segment Mean value of inhibition rate / Cervical segment Mean value of inhibition rate / Cerebellum Mean value of inhibition rate / Hippocampus Mean value of inhibition rate: inhibition rate of SOD1 mRNA, calculated by the ΔΔCt method; conditions: D7
Procedure: 6-8 Week-old SD rats were randomly grouped by body weight. Rats in each group were administered with siRNA by intrathecal administration, with an administration dose of 900 μg per rat. Injection was administered from rat spinal cord L5-L6, with an administration volume of 40 μL. Needle was retained for 2 min after completion of injection, and then slowly withdrawn. PBS control group was administered with the same volume of siRNA conjugate-free PBS solution. The day of administration was recorded as 0 day (D0), and the rats were sacrificed at observation point after administration. Different segments of spinal cord and different regions of brain were respectively taken and stored in the RNAlater.
as §1, §2, §3
In the real-time fluorescence quantitative PCR method, relative quantitative calculation of remaining expression level and inhibition rate of gene mRNA of interest in various test groups was performed by the ΔΔCt method, and the calculation method is as follows:
The present example evaluated, by an evaluation method for inhibitory activity on a target gene by intrathecal administration to rats, the inhibitory activity of siRNA sequence RZ899060 with the sense strand with the NM031 conjugation at Position 4 and vector-free siRNA sequence RZ899056, and Uhd conjugated siRNA reference sequence RZ899055 on the target gene SOD1 of interest in spinal cord and brain of rats.
6-8 Week-old SD rats were randomly grouped by body weight, 5 per group, 4 groups in total. Rats in each group were dosed with the above siRNA conjugates by intrathecal administration, with an administration dose of 900 μg per rat, and an administration volume of 40 μL. PBS control group was administered with the same volume of siRNA conjugate-free PBS solution. The day of administration was recorded as 0 day (D0), and the rats were sacrificed on D7 after administration. […]

## RZ899060: siRNA sequence with the sense strand with the NM031 conjugation at Position 4; SEQ ID NO: 3 / 22 (sense mU*mU*mU[NM031]mAmAfUfCfCmUmCmAmCmUmCmUmAmAmA; antisense {VP}-mU*fU*mUmAmGfAmGmUmGmAmGmGmAfUmUfAmAmAmA*mU*mG)
[1]; cerebellum
  Cerebellum Mean value of inhibition rate %: 56.11%
[1]; cortex
  Cortex Mean value of inhibition rate %: 79.05%
[1]; hippocampus
  Hippocampus Mean value of inhibition rate %: ≥ 90% and 90.98%
[2]; cerebellum, intrathecal, 900 μg per rat
  Cerebellum Mean value of inhibition rate: 55.10
[2]; cerebral cortex, intrathecal, 900 μg per rat
  Cortex Mean value of inhibition rate: 43.00
[2]; hippocampus and cortex in the brain region, intrathecal 900 μg per rat
  activity compared with the reference sequence RZ899055: substantially comparable
[2]; hippocampus, intrathecal, 900 μg per rat
  Hippocampus Mean value of inhibition rate: 47.77
[2]; lumbar segment, intrathecal 900 μg per rat
  activity compared with the Uhd conjugated reference sequence RZ899055: substantially comparable
[2]; lumbar, thoracic and cervical segment, intrathecal 900 μg per rat
  inhibitory activity in the spinal cord segments: ≥ 80%
[2]; spinal cord cervical segment, intrathecal, 900 μg per rat
  Cervical segment Mean value of inhibition rate: 83.37
[2]; spinal cord lumbar segment, intrathecal, 900 μg per rat
  Lumbar segmen Mean value of inhibition rate: 84.24
[2]; spinal cord thoracic segment, intrathecal, 900 μg per rat
  Thoracic segment Mean value of inhibition rate: 94.54
[2]; thoracic segment and cervical segment of spinal cord, intrathecal 900 μg per rat
  activity compared with the Uhd conjugated reference sequence RZ899055: superior
